From patent publication US20090318485A1, “NOVEL INHIBITORS OF RHO KINASE” (KALYPSYS, INC., priority 2006, published 2009)

Legend:
[1] = target: T1, recombinant N-terminal GST-tagged human Rho kinase 1 (ROCK1, amino acids 1-535) (Homo sapiens, UniProt Q13464); assay: In vitro Rho kinase assay (luciferase-based ATP consumption), ROCK1; type: biochemical; details: 3 μM ATP, S6 peptide substrate, 30° C. for 2 hours; read-out: ROCK 1 IC50
T1 construct: human Rho kinase 1 (ROCK1, amino acids 1-535, Invitrogen Inc); purchased Invitrogen Inc. PV-3691
T1 sequence (Q13464 1-535): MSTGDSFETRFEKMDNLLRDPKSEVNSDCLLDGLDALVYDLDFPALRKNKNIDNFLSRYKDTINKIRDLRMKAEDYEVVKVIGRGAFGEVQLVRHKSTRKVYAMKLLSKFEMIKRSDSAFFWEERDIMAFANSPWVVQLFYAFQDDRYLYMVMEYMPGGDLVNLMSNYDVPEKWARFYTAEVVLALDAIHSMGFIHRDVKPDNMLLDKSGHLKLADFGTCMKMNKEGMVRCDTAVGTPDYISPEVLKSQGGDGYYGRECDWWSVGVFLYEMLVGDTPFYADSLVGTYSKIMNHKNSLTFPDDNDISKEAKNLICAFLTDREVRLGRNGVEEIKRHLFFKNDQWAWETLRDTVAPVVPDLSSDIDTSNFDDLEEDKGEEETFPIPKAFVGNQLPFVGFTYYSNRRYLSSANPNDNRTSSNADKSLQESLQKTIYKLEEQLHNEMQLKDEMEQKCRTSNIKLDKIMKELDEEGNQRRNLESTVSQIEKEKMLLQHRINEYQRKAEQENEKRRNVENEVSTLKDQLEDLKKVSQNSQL
Experimental: (§1) In Vitro Rho Kinase Assay
(§2) Rho kinase biochemical assays described below depend on firefly luciferase-based, indirect measurement of total ATP consumption by the kinase following incubation with substrate and ATP. […] The plate is centrifuged for 30 seconds at approximately 200×g. 240 nl of test compound in DMSO is dispensed to each well by passive pin transfer. The lag phase of this in vitro kinase reaction permits addition of compounds soon after the reaction initiates. The reaction is allowed to incubate at 30° C. for 2 hours. The assay plates are sealed and maintained in a humidified environment. […] After an additional 10 minute incubation at room temperature (about 22° C.), luminescence activity is measured on a Molecular Devices Analyst multi-mode plate reader or other suitable plate reader. Kinase inhibition results in less ATP consumption, and therefore increased luminescence signal. Negative control activity is measured with DMSO lacking any test compound. The positive control is 2-methyl-1-(4-methylisoquinolin-5-ylsulfonyl)perhydro-1,4-diazepine hydrochloride (aka H-1152P, HCl salt). Efficacy is measured as a percentage of positive control activity.

[2] = target: T2, recombinant N-terminal GST-tagged human Rho kinase 2 (ROCK2, amino acids 1-552) (Homo sapiens, UniProt O75116); assay: In vitro Rho kinase assay (luciferase-based ATP consumption), ROCK2; type: biochemical; details: 3 μM ATP, S6 peptide substrate, 30° C. for 2 hours; read-out: ROCK 2 IC50
T2 construct: human Rho kinase 2 (ROCK2, amino acids 1-552, Invitrogen Inc); purchased Invitrogen Inc. PV3759
T2 sequence (O75116 1-552): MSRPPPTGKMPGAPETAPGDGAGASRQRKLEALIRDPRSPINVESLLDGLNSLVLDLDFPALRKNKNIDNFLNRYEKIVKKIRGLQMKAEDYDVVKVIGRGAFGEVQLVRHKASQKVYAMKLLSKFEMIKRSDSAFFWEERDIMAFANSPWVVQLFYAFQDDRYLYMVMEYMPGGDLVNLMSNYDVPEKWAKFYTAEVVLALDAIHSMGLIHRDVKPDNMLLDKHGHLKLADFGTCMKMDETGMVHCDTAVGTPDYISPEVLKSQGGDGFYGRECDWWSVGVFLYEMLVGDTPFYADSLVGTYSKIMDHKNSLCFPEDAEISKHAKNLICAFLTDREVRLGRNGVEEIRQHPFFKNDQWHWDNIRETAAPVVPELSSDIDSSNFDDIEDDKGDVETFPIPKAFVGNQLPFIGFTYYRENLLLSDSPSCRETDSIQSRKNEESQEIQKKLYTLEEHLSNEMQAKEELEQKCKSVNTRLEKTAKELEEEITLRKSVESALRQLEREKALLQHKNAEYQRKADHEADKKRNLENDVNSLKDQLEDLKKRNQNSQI
Experimental: as §1, §2

Row | IC50 [1] [µM] | IC50 [2] [µM] | SMILES
1 | ≤ 5 | ≤ 5 | C=CCc1cccc2cc(C(N)=O)c(=N)oc12 [Example 1]
2 | ≤ 5 | ≤ 5 | Cc1cc(C)c2c(N)c(C(N)=O)sc2n1 [Example 2]
3 | ≤ 5 | ≤ 5 | CC(C)c1cc2cc(/C=C/C(=O)O)c(O)cc2o1 [Example 3]
4 | > 5 | ≤ 5 | CN(C)CCN(Cc1ccccc1)Cc1cc(-c2ccnc3cc(Cl)ccc23)ccc1O [Example 4]
5 | ≤ 5 | ≤ 5 | CSc1nc(-c2ccncc2)nc(N)c1C#N [Example 5]
6 | ≤ 5 | ≤ 5 | CC(C)(CO)CNc1nc(-c2ccncc2)cnc1N [Example 6]
7 | ≤ 5 | > 5 | CC(CCc1ccc(O)cc1)Nc1ccc2[nH]ncc2c1 (stereo not drawn) [Example 7]
8 | ≤ 5 | ≤ 5 | CC(OC(=O)c1ccc(O)cc1)C(=O)Nc1ccc(Cl)c(Cl)c1 (stereo not drawn) [Example 8]
9 | ≤ 5 | ≤ 5 | C=CCN(CC=C)S(=O)(=O)c1ccc2nc(N)sc2c1 [Example 9]
10 | > 5 |  | Cc1cc(=O)oc2cc(OC(C)C(=O)Nc3nccs3)ccc12 (stereo not drawn) [Example 10]
11 | ≤ 5 | ≤ 5 | O=C1NC(=Cc2ccc(O)c(Br)c2)C(=O)N1Cc1ccccc1F [Example 11]
12 | > 5 | > 5 | CCOC(=O)c1nnn(-c2nonc2N)c1-c1ccccc1Cl [Example 12]
13 | ≤ 5 | ≤ 5 | CC1CCC(C(=O)NC(C(=O)Nc2ccncc2)C(C)C)CC1 (stereo not drawn) [Example 13]
14 | ≤ 5 | ≤ 5 | Clc1ccc(Cn2cc(-c3ccncc3)cn2)c(Cl)c1 [Example 15]
